From EP2848693A1, “Concatenation of halogenated alkenyl diphosphate derivatives” (LANXESS Deutschland GmbH, priority 2013, dated 2015)

Key:
ThkCPT = biological target: T1, ThkCPT (Thermococcus kodakarensis, UniProt Q5JGE1); assay: Product chain length by HPLC with fluorescent starter substrate 110; type: biochemical, Thermococcus kodakaraensis; details: 10 µM ThkCPT, 110 as starter substrate, room temperature 25°C
T1 construct: made in house; host or cells: E. coli
T1 sequence (Q5JGE1 1-264): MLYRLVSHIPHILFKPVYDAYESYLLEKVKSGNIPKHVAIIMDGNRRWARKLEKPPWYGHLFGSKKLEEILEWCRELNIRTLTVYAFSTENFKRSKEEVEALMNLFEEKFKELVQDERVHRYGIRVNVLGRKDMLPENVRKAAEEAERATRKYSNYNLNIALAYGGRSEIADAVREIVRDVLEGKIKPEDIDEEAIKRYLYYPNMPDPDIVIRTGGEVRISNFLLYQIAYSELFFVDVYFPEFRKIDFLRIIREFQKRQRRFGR
Method: (§1) Zur Bestimmung der Produktkettenlängen wurden 500 µL Enzymassays in MS-Gläschen durchgeführt. […] Die Extraktion der Polyprenyldiphosphate erfolgte mit 500 µL 1-Butanol. Die Butanolphase wurde in ein neues Glas überführt und unter Stickstoffstrom von dem Lösungsmittel befreit. Die Hydrolyse der Diphosphate zum Polyprenol erfolgte durch Zugabe von 200 µL Hydrolysepuffer (20% Isopropanol, 4,4 Units/mL saure Phophatase aus Kartoffeln, 0,1 % Triton X-100, 50 mM Natriumacetat (pH 4,7)) und wurde über Nacht bei 37 °C inkubiert. Die Polyprenole wurden mit 500 µL nHexan extrahiert und zur weiteren DC- oder HPLC-Analyse vorbereitet. Für DC-Experimente und LC/ESI-MS-Analysen wurde die nHexan-Phase in ein neues Glas überführt, das Lösungsmittel abgedampft und die Produkte erneut in 100 µL nHexan resuspendiert um eine Aufkonzentrierung zu erreichen. Für HPLC-Analysen mit 110 ((2E,6E)-8-O-(N-methyl-2-aminobenzoyl)-3,7-dimethyl-2,6-octandien-1-diphosphat) als Startersubstrat wurde die nHexan-Phase 1:3 verdünnt in das HPLC-System mittels Autosampler injiziert.
Die HPLC-Analyse der Polyprenole erfolgte an einer Anlage von Merck HITACHI D-7000, wobei als stationäre Phase eine YMC-ODS AQ (150 x 4 mm, 5 µm; YMC Europe GmbH, Dinslaken) Säule verwendet wurde. Die Elution erfolgte mit 1 mL·min^-1 und die Detektion bei 210 nm mit einem UV-VIS Detektor: Merck HITACHI L-7420. Das Injektionsvolumen betrug dabei 5 µL. Die mobile Phase setzte sich aus Laufmittel A (MeOH/H2O/Isopropanol 12:1:8 (v/v/v)) und Laufmittel B (nHexan/Isopropanol 7:3 (v/v)) zusammen. Die Probenaufgabe erfolgte mittels Autosampler (Merck HITACHI L-7250). [drawing 35]
Zur selektiven und vor allem sensitiven Detektion von Polyprenolen kann ein alternatives, fluoreszierendes Startersubstrat verwendet werden, (2E,6E)-8-O-(N-methyl-2-aminobenzoyl)-3,7-dimethyl-2,6-octandien-1-diphosphat (110). Die Analyse erfolgte wie in Beispiel 6 beschrieben. Dabei wurden 3 µL pro Probe injiziert und die Detektion erfolgte über Fluoreszenz: Ex 352 nm / Em 420 nm wobei das Gerät Merck HITACHI L-7480 als Fluoreszenzdetektor verwendet wurde. […]

MIUPPS = biological target: T2, MIUPPS (Micrococcus luteus, UniProt O82827); assay: Prenyltransferase activity test, conversion of FPP with elongation substrate (MTP phosphate detection assay); type: biochemical; details: 5 µM E,E-FPP, 200 µM elongation substrate, 50 µM enzyme, room temperature
T2 construct: poly-Histidin-Tag (His6) (N); made in house; host or cells: E. coli BL21 (DE3)
T2 sequence (O82827 1-249): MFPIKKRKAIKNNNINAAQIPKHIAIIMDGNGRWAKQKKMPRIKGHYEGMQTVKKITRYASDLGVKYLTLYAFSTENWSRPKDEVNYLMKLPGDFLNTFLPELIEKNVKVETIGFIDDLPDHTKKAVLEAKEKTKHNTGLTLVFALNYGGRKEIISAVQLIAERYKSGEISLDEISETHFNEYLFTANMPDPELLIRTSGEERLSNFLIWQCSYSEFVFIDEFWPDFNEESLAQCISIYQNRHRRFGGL
Method: (§2) Die Aktivität der Prenyltransferasen wurde hinsichtlich der Umsetzung von Farnesyldiphosphat (FPP) als Startersubstrat und Isopentenyldiphosphat (IPP), und Cl-BPP bzw. Br-BPP mit Hilfe des MTP-Phosphatdetektionsassays bestimmt.
(§3) Cl-BPP und jeweils 50 µM Enzym bei Raumtemperatur durchgeführt. […] Cl-BPP gezeigt werden. Als Negativkontrolle diente ein Ansatz ohne Enzym (nicht gezeigt).

EcUPPS [1] = biological target: T3, EcUPPS (Escherichia coli, UniProt P60472); assay: as above; type: biochemical; details: 5 µM E,E-FPP, 200 µM elongation substrate, 50 µM enzyme, room temperature
T3 construct: made in house; host or cells: E. coli
Method: as §2, §3

MtUPPS = biological target: T4, MtUPPS (Mycobacterium tuberculosis, UniProt P9WFF7); assay: as above; type: biochemical; details: 5 µM E,E-FPP, 200 µM elongation substrate, 50 µM enzyme, room temperature
T4 construct: poly-Histidin-Tag (His6) (N); made in house; host or cells: E. coli BL21 (DE3)
Method: as §2, §3

HpUPPS = biological target: T5, HpUPPS (Helicobacter pylori, UniProt P55984); assay: as above; type: biochemical; details: 5 µM E,E-FPP, 200 µM elongation substrate, 50 µM enzyme, room temperature
T5 construct: poly-Histidin-Tag (His6) (N); made in house; host or cells: E. coli BL21 (DE3)
Method: as §2, §3

EcUPPS [2] = biological target: T3, EcUPPS; assay: Product chain length by HPLC with fluorescent starter substrate 110; type: biochemical; details: 10 µM EcUPPS, 110 as starter substrate, HPLC of hydrolysed products
Method: as §1
Die HPLC-Analyse der Polyprenole erfolgte an einer Anlage von Merck HITACHI D-7000, wobei als stationäre Phase eine YMC-ODS AQ (150 x 4 mm, 5 µm; YMC Europe GmbH, Dinslaken) Säule verwendet wurde. Die Elution erfolgte mit 1 mL·min^-1 und die Detektion bei 210 nm mit einem UV-VIS Detektor: Merck HITACHI L-7420. […]

T3 sequence (P60472 whole entry): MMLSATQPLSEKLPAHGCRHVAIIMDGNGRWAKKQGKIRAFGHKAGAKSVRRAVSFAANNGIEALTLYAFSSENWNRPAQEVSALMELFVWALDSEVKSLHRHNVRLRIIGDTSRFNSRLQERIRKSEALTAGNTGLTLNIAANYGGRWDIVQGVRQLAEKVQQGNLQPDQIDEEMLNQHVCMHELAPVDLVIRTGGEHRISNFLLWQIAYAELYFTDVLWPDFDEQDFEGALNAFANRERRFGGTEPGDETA
T5 sequence (P55984 whole entry): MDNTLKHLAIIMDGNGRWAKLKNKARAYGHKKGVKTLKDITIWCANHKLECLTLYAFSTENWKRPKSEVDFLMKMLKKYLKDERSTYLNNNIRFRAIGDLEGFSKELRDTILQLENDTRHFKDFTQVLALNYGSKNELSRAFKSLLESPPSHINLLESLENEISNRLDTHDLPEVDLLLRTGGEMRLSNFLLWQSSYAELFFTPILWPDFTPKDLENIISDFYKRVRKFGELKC
T4 sequence (P9WFF7 whole entry): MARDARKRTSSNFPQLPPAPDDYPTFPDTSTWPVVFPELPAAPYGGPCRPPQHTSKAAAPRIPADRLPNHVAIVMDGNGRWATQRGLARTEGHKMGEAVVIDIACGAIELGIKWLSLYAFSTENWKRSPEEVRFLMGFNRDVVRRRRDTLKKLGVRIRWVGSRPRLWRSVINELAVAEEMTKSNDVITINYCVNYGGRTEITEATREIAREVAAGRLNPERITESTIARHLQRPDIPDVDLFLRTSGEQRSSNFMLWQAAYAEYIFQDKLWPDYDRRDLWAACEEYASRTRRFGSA

Compound: C=C(Cl)CCOP(=O)(O)OP(=O)(O)O [Cl-BPP, 3-Chlor-3-Butenyldiphosphat]
- Kondensationen (Reaktionsprodukte) (ThkCPT): mehr als zwei Kondensationen
- Aktivität (Umsetzung von FPP mit Elongationssubstrat) (MIUPPS): im geringeren Maße
- Aktivität (Umsetzung von FPP mit Elongationssubstrat) (EcUPPS [1]): höchste Aktivität
- Aktivität (Umsetzung von FPP mit Elongationssubstrat) (MtUPPS): höchste Aktivität
- Aktivität (Umsetzung von FPP mit Elongationssubstrat) (HpUPPS): im geringeren Maße
- Kondensationsschritte / Elongationseinheiten (EcUPPS [2]): 2
